Four molecules from article PMC2180961 (The Journal of Experimental Medicine, 1977) can be followed below.

For data set [1], the target named is T1, rat mast cell chymase (Rattus norvegicus, UniProt P09650).
T1 sequence (P09650 21-260): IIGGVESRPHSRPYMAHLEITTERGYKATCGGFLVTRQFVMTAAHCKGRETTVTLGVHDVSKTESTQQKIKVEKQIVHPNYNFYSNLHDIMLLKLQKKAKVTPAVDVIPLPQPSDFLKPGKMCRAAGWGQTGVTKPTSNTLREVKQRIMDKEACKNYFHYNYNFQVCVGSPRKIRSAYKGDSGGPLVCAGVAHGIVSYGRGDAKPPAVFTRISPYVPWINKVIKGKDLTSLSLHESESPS
Kind of data set: […]-casein proteolysis assay. The format is biochemical.

Data set [2] deals with T1, rat mast cell chymase. Kind of data set: […]-casein proteolysis assay. The format is biochemical. The conditions noted are these: read-out: % inhibition at 300 mM.
In data set [3] the test system is CCOC(=O)[C@H](Cc1ccc(O)cc1)NC(=O)c1ccccc1. Kind of data set: purified protein. The conditions noted are these: 25 C, same experiment as chymase, unit M not printed beside this value.
Substrate in data set [4]: CCOC(=O)[C@H](Cc1ccc(O)cc1)NC(=O)c1ccccc1
The data set is described as follows: purified protein. The format is biochemical, Rattus norvegicus. The conditions noted are these: 25 C, abstract and summary print 1.5 x 10^-3 M (apparent Km).

For orientation: IC50 means the point on the concentration scale where inhibition reaches its midpoint. A lower IC50 goes with greater potency in that assay. As for `NCCc1c[nH]c2ccc(O)cc12` [5-HT], in data set [1], inhibition was half-maximal at 3 mM (IC50). As a reminder, the inhibition is the drop in the measured response relative to a control, in per cent. `NCCc1c[nH]cn1` [histamine]: the inhibition at 300000 µM in data set [2] stood at 20%. The Km is the concentration of substrate that gives half-maximal velocity. Turning to alpha-chymotrypsin (Bos taurus), the Km in data set [3] is 1170 µM.

B1: rat mast cell chymase (Rattus norvegicus) (protein)
chain: T1 sequence (P09650 21-260)
Take B1: in data set [4], the Km was determined as 1560 µM.
